# Assay results: patent publication US7687510B2, “Pyrimidinone derivatives as therapeutic agents against acute and chronic inflammatory, ischaemic and remodelling processes” (Bayer Healthcare AG, priority 2002, dated 2010)
# Biological target: T1, human neutrophil elastase (HNE) (Homo sapiens, UniProt P08246)
# T1 construct: purchased SERVA Electrophoresis GmbH, Heidelberg, Germany #20927.01
# T1 sequence (P08246 30-267): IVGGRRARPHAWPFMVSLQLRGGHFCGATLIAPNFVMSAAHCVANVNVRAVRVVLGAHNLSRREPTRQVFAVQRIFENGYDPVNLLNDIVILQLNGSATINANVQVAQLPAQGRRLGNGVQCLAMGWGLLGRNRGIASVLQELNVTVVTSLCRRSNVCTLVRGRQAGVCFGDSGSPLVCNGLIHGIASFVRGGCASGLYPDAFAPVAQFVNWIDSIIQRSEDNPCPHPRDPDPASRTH
# Assay: In vitro inhibition of HNE using a fluorogenic peptide substrate (continuous read-out signal, 384 MTP assay format)
# Format: biochemical
# Conditions: substrate MeOSuc-Ala-Ala-Pro-Val-AMC, 37° C.
# Method: I. In vitro Enzyme Assays of Human Neutrophil Elastase (HNE)
# assay buffer: 0.1 M HEPES-NaOH buffer pH 7.4, 0.5 M NaCl, 0.1% (w/v) bovine serum albumin;
# suitable concentration (see below) of substrate in assay buffer;
# suitable concentration of test compounds diluted with assay buffer from a 10 mM stock solution in DMSO.
# The test solution is prepared by mixing 10 μl of test compound dilution, 20 μl of HNE enzyme dilution (final concentration 8-0.4 μU/ml, routinely 2.1 μU/ml) and 20 μl of substrate dilution (final concentration 1 mM-1 μM, routinely 20 μM), respectively. The solution is incubated for 0-2 hrs at 37° C. (routinely one hour). The florescence of the liberated AMC due to the enzymatic reaction is measured at 37° C. (TECAN spectra fluor plus plate reader). […] IC50 values are determined by RFU-versus-[I] plots. Km and Km(app.) values are determined by Lineweaver-Burk inverted to Ki values by Dixon plots.
row,Molecule,IC50 [nM]
1,"CCOC(=O)C1=C(CN(CC)CC)N(c2cccc(C(F)(F)F)c2)C(=O)NC1c1ccc(C#N)cc1 (stereo not shown) [Example 20, Ethyl 4-(4-cyanophenyl)-6-[(diethylamino)methyl]-2-oxo-1-[3-(trifluoromethyl)-phenyl]-1,2,3,4-tetrahydro-5-pyrimidinecarboxylate]",700
2,"CC1=C(C(=O)OCCc2ccncc2)C(c2ccc(C#N)cc2)NC(=O)N1c1cccc(C(F)(F)F)c1 (stereo not shown) [Example 28, 2-(4-Pyridinyl)ethyl 4-(4-cyanophenyl)-6-methyl-2-oxo-1-[3-(trifluoromethyl)phenyl]-1,2,3,4-tetrahydro-5-pyrimidinecarboxylate]",50
3,CC1=C(C(=O)N(C)C)C(c2ccc(C#N)cc2)NC(=O)N1c1cccc(C(F)(F)F)c1 (stereo not shown) [Example 58],1100
4,"CCOC(=O)C1=C(C)N(c2cccc(C(F)(F)F)c2)C(=O)NC1c1cccc([N+](=O)[O-])c1 (stereo not shown) [Example 103, Ethyl 6-methyl-4-(3-nitrophenyl)-2-oxo-1-[3-(trifluoromethyl)phenyl]-1,2,3,4-tetra-hydro-5-pyrimidinecarboxylate]",60
5,"CCOC(=O)C1=C(C)N(c2cccc(C(F)(F)F)c2)C(=O)NC1c1ccc([N+](=O)[O-])cc1 (stereo not shown) [Example 110, Ethyl 6-methyl-4-(4-nitrophenyl)-2-oxo-1-[3-(trifluoromethyl)phenyl]-1,2,3,4-tetra-hydropyrimidine-5-carboxylate]",50

# The next lines start with the values.
row,IC50 [nM],Molecule
1,40,"N#CC1=C(N)N(c2cccc(C(F)(F)F)c2)C(=O)NC1c1ccc(C#N)cc1 (stereo not shown) [Example 9, 6-Amino-4-(4-cyanophenyl)-2-oxo-1-[3-(trifluoromethyl)phenyl]-1,2,3,4-tetrahydro-5-pyrimidinecarbonitrile]"
2,5,"CCOC(=O)C1=C(C)N(c2cccc(C(F)(F)F)c2)C(=O)N(C)C1c1ccc(C#N)cc1 (stereo not shown) [Example 14, Ethyl 4-(4-cyanophenyl)-3,6-dimethyl-2-oxo-1-[3-(trifluoromethyl)phenyl]-1,2,3,4-tetrahydro-5-pyrimidinecarboxylate]"
3,8,"CCOC(=O)C1=C(C)N(c2cccc(C(F)(F)F)c2)C(=O)N(C(C)=O)C1c1ccc(C#N)cc1 (stereo not shown) [Example 15, Ethyl 3-acetyl-4-(4-cyanophenyl)-6-methyl-2-oxo-1-[3-(trifluoromethyl)phenyl]-1,2,3,4-tetrahydro-5-pyrimidinecarboxylate]"
4,10,"CCOC(=O)C1=C(C)N(c2cccc(C(F)(F)F)c2)C(=O)N(C(=O)OCC)C1c1ccc(C#N)cc1 (stereo not shown) [Example 16, Diethyl 6-(4-cyanophenyl)-4-methyl-2-oxo-3-[3-(trifluoromethyl)phenyl]-3,6-di-hydro-1,5(2H)-pyrimidinedicarboxylate]"
5,13,"CCOC(=O)C1=C(C)N(c2cccc(C(F)(F)F)c2)C(=O)NC1c1ccc(C#N)nc1 (stereo not shown) [Example 24, Ethyl 4-(6-cyano-3-pyridinyl)-6-methyl-2-oxo-1-[3-(trifluoromethyl)phenyl]-1,2,3,4-tetrahydro-5-pyrimidinecarboxylate]"
6,5,CCOC(=O)C1=C(C)N(c2cccc(C(F)(F)F)c2)C(=O)N(CC(=O)N2CCN(C)CC2)C1c1ccc(C#N)cc1 (stereo not shown) [Example 60]

# System: human polymorphonuclear cells (PMNs)
# Assay: In vitro PMN elastolysis assay (tritiated elastin)
# Format: cell-based
# Conditions: at 1.2 μM; mean±s.e.m.; n=3 different donors at 3.6×10^5 cells per well
# Method: In Vitro PMN Elastolysis Assay:
# This assay is used to determine the elastolytic potential of human polymorphonuclear cells (PMNs) and assess the proportion of degradation due to neutrophil elastase [cf. Z. W. She et al., Am. J. Respir. Cell. Mol. Biol. 9, 386-392 (1993)].
# Tritiated elastin, in suspension, is coated on to a 96 well plate at 10 μg per well. Test and reference [ZD-0892 (J. Med. Chem. 40, 1876-1885, 3173-3181 (1997), WO 95/21855) and α1 protease inhibitor (α1PI)] compounds are added to the wells at the appropriate concentrations. […] Porcine pancreatic elastase (1.3 μM is used as a positive control for the assay, and α1PI (1.2 μM) is used as the positive inhibitor of neutrophil elastase. The cellular control is PMNs without compound at each appropriate cell density. The cells plus compounds are incubated in a humidified incubator at 37° C. for 4 hours. The plates are centrifuged to allow the harvest of cell supernatant only. The supernatant is transferred in 75 μl volumes to corresponding wells of a 96 well Lumaplate™ (solid scintillant containing plates). The plates are dried until no liquid is visible in the wells and read in a beta counter for 3 minutes per well. […]
# The compounds of this invention are evaluated for their inhibitory activity in this HNE-dependent model of neutrophil elastolysis.
row,Molecule,inhibition of elastolysis [%]
1,"α1PI: α1 protease inhibitor, reference and positive inhibitor of neutrophil elastase",83.46±3.97

# Same assay, conditions: mean±s.e.m.; n=2 different donors at 3.6×10^5 cells per well
row,IC50 [nM],Molecule
1,45.5 ± 7.75,COc1ccc(C(=O)N[C@H](C(=O)N2CCC[C@H]2C(=O)N[C@H](C(=O)C(F)(F)F)C(C)C)C(C)C)cc1 [ZD-0892]
